# Patent US20110028686A1, “Protein binding miniature proteins” (Yale University, priority 2000, published 2011)
# Square brackets hold non-standard residues; d marks the D form. Peptide text beside a SMILES is read from it. * marks the point of attachment. Fluorescein(5-NHCOCH2) = O=C(C*)Nc1ccc2c(c1)C(=O)OC21c2ccc(O)cc2Oc2cc(O)ccc21; pS = N[C@@H](COP(=O)(O)O)C(=O)O
# Key:
# catalytic subunit of PKA = catalytic subunit of PKA (Homo sapiens, UniProt P17612); experiment: Fluorescence polarization, affinity for PKA catalytic subunit; type: binding; settings: presence of 100 μM ATP
# [1] = system: Ca++/calmodulin kinase II (CamKII); experiment: Phosphotransferase assay, CamKII; type: biochemical; settings: 1-K252a up to 100 nM; 1 up to 5 μM
# Akt kinase (PKB) = Akt kinase (PKB) (Homo sapiens, UniProt P31749); experiment: Phosphotransferase assay, PKB; type: biochemical; settings: 1-K252a up to 100 nM; 1 up to 5 μM
# Sequence of Akt kinase (PKB) (P31749 whole entry, species assumed): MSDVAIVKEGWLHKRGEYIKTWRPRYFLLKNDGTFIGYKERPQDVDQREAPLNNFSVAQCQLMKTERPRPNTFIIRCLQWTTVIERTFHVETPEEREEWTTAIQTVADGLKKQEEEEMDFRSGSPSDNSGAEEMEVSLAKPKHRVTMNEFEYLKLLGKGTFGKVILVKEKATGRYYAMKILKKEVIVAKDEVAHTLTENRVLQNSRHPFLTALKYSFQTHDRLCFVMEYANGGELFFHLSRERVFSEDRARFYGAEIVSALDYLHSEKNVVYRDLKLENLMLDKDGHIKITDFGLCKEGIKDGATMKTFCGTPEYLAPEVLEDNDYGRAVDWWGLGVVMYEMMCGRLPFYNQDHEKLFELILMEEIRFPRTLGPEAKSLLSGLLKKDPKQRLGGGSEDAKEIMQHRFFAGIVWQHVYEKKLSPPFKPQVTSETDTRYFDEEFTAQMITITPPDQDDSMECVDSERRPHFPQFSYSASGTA
# PKA = PKA (Homo sapiens, UniProt P17612); experiment: PKA phosphotransferase assay, streptavidin-matrix capture of [32P]-phosphorylated substrates; type: biochemical; settings: ATP and peptide substrate below KM
# [2] = system: cGMP-dependent protein kinase (PKG); experiment: Phosphotransferase assay, PKG; type: biochemical; settings: 1 up to 5 μM
# [3] = target: protein kinase Cα (PKC-α) (Homo sapiens, UniProt P17252); experiment: Phosphotransferase assay, PKC-α; type: biochemical; settings: 1-K252a up to 100 nM; 1 up to 5 μM
# CBP KIX L603A = target: T1, CBP KIX L603A (Mus musculus, UniProt P45481, L603A); experiment: Equilibrium fluorescence polarization, CBP KIX variant L603A; type: binding
# T1 construct: made in house; host or cells: E. coli BL21(DE3) pArg
# T1 sequence (P45481 586-665 L603A limits assumed): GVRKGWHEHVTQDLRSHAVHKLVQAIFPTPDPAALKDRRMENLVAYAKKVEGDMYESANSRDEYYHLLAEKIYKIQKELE
# CBP KIX I657A = target: T2, CBP KIX I657A (Mus musculus, UniProt P45481, I657A); experiment: Equilibrium fluorescence polarization, CBP KIX variant I657A; type: binding
# T2 construct: made in house; host or cells: E. coli BL21(DE3) pArg
# T2 sequence (P45481 586-665 I657A limits assumed): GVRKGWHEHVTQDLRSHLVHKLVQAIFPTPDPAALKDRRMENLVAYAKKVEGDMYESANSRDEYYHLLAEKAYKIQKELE
# CBP KIX K606A = target: T3, CBP KIX K606A (Mus musculus, UniProt P45481, K606A); experiment: Equilibrium fluorescence polarization, CBP KIX variant K606A; type: binding
# T3 construct: made in house; host or cells: E. coli BL21(DE3) pArg
# T3 sequence (P45481 586-665 K606A limits assumed): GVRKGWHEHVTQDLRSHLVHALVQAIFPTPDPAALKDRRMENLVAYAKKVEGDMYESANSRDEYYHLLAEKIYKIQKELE
# CBP KIX Y658F = target: T4, CBP KIX Y658F (Mus musculus, UniProt P45481, Y658F); experiment: Equilibrium fluorescence polarization, CBP KIX variant Y658F; type: binding
# T4 construct: made in house; host or cells: E. coli BL21(DE3) pArg
# T4 sequence (P45481 586-665 Y658F limits assumed): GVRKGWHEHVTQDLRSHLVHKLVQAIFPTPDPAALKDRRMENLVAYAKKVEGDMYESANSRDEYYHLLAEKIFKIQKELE
# [4] = target: T5, HisKIX (His-tagged CBP KIX domain) (Mus musculus, UniProt P45481); experiment: Equilibrium fluorescence polarization, HisKIX binding
# T5 construct: The CBP KIX-coding region (residues 586 to 672) of pGEX-KT KIX 10-672; made in house; host or cells: E. coli BL21(DE3) pArg
# T5 sequence (P45481 586-672): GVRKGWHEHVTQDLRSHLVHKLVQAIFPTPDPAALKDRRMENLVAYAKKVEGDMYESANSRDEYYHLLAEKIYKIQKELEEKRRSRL
# CBP KIX Y650A = target: T6, CBP KIX Y650A (Mus musculus, UniProt P45481, Y650A); experiment: Equilibrium fluorescence polarization, CBP KIX variant Y650A; type: binding
# T6 construct: made in house; host or cells: E. coli BL21(DE3) pArg
# T6 sequence (P45481 586-665 Y650A limits assumed): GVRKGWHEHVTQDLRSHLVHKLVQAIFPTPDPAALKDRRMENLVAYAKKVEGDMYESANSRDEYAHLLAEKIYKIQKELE
# CBP KIX L599A = target: T7, CBP KIX L599A (Mus musculus, UniProt P45481, L599A); experiment: Equilibrium fluorescence polarization, CBP KIX variant L599A; type: binding
# T7 construct: made in house; host or cells: E. coli BL21(DE3) pArg
# T7 sequence (P45481 586-665 L599A limits assumed): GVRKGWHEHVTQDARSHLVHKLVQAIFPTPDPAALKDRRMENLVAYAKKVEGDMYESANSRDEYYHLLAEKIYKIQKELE
# CBP KIX K662A = target: T8, CBP KIX K662A (Mus musculus, UniProt P45481, K662A); experiment: Equilibrium fluorescence polarization, CBP KIX variant K662A; type: binding
# T8 construct: made in house; host or cells: E. coli BL21(DE3) pArg
# T8 sequence (P45481 586-665 K662A limits assumed): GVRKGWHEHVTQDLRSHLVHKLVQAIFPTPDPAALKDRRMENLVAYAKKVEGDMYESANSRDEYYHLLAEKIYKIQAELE
# CBP KIX LL652-3AA = target: T9, CBP KIX LL652-3AA (Mus musculus, UniProt P45481, L652A/L653A); experiment: Equilibrium fluorescence polarization, CBP KIX variant LL652-3AA; type: binding
# T9 construct: made in house; host or cells: E. coli BL21(DE3) pArg
# T9 sequence (P45481 586-665 L652A/L653A): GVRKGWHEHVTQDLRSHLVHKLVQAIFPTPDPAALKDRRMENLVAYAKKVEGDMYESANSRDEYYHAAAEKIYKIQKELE
# Bcl-2 = Bcl-2 (Homo sapiens, UniProt P10415); experiment: Bcl-2 binding by fluorescence emission of fluorescein-labeled peptide; settings: read-out: Kd for binding to Bcl-2, 4° C., PBS
# Sequence of Bcl-2 (P10415 1-205): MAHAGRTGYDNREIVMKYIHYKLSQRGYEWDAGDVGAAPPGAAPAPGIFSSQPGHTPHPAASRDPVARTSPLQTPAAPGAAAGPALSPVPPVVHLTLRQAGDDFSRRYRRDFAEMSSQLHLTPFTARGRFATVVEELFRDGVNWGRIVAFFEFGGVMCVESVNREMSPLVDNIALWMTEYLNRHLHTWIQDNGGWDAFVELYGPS
smiles,measurement,setting,value
CC[C@H](C)[C@H](NC(=O)[C@H](C)NC(=O)[C@H](CC(N)=O)NC(=O)[C@H](CCCNC(=N)N)NC(=O)[C@H](CCCNC(=N)N)NC(=O)CNC(=O)[C@@H](NC(=O)[C@@H](NC(=O)CNC(=O)[C@H](CC(C)C)NC(=O)[C@H](Cc1ccc(O)cc1)NC(=O)[C@@H](NC(=O)[C@H](Cc1ccccc1)NC(=O)[C@H](CC(C)C)NC(=O)[C@H](C)NC(=O)[C@H](Cc1ccc(O)cc1)NC(=O)[C@@H](NC(=O)[C@H](Cc1ccccc1)NC(=O)[C@H](CCCNC(=N)N)NC(=O)[C@@H](NC(=O)[C@H](CC(C)C)NC(=O)[C@H](CC(=O)O)NC(=O)[C@H](CCC(=O)O)NC(=O)[C@@H](NC(=O)[C@@H]1CCCN1C(=O)[C@H](C)NC(=O)[C@H](CC(=O)O)NC(=O)[C@H](CC(=O)O)NC(=O)CNC(=O)[C@@H]1CCCN1C(=O)[C@H](Cc1ccc(O)cc1)NC(=O)[C@@H](NC(=O)[C@@H]1CCCN1C(=O)[C@H](CCC(N)=O)NC(=O)[C@H](CO)NC(=O)[C@@H]1CCCN1C(=O)CN)[C@@H](C)O)C(C)C)[C@@H](C)CC)[C@@H](C)O)[C@@H](C)CC)C(C)C)C(C)C)C(=O)N[C@@H](Cc1c[nH]cn1)C(=O)N[C@@H](CC(=O)O)C(=O)N[C@@H](CSCC(=O)Nc1ccc2c(c1)C(=O)OC21c2ccc(O)cc2Oc2cc(O)ccc21)C(N)=O [2^Flu] (H-GPSQPTYPGDDAPVEDLIRFTYALFIYLGVVGRRNAIHDC(Fluorescein(5-NHCOCH2))-NH2; N-terminus and C-terminus assumed),Kd,catalytic subunit of PKA,570 ± 123 nM
"COC(=O)[C@@]1(O)C[C@H]2O[C@]1(C)n1c3ccccc3c3c4c(c5c6ccccc6n2c5c31)C(=O)NC4 [K252a, reference compound]",inhibition of CamKII phosphotransferase activity,[1],inhibited by K252a
same,inhibition of PKB phosphotransferase activity,Akt kinase (PKB),inhibited by K252a
same,IC50,PKA,0.14 ± 0.003 nM
same,inhibition of PKG phosphotransferase activity,[2],inhibited by K252a
same,inhibition of PKC-α phosphotransferase activity,[3],inhibited by K252a
"CC[C@H](C)[C@H](NC(=O)[C@H](CCCCN)NC(=O)[C@H](CCCNC(=N)N)NC(=O)[C@H](Cc1ccc(O)cc1)NC(=O)[C@H](COP(=O)(O)O)NC(=O)[C@@H]1CCCN1C(=O)[C@H](CCCNC(=N)N)NC(=O)[C@H](CCCNC(=N)N)NC(=O)[C@H](CO)NC(=O)[C@H](CC(C)C)NC(=O)[C@@H](NC(=O)[C@H](CCC(=O)O)NC(=O)[C@H](CCCNC(=N)N)NC(=O)[C@H](CCCNC(=N)N)NC(=O)[C@H](CCCCN)NC(=O)[C@H](CCC(N)=O)NC(=O)[C@H](CO)NC(=O)[C@H](CC(=O)O)NC(=O)[C@@H](N)[C@@H](C)O)[C@@H](C)CC)C(=O)N[C@@H](CC(C)C)C(=O)N[C@@H](CC(N)=O)C(=O)N[C@@H](CC(=O)O)C(=O)N[C@@H](CC(C)C)C(=O)N[C@@H](CO)C(=O)N[C@@H](CO)C(=O)N[C@@H](CC(=O)O)C(=O)N[C@@H](C)C(=O)N1CCC[C@H]1C(=O)NCC(=O)N[C@H](C(=O)N[C@@H](CSCC(=O)Nc1ccc2c(c1)C(=O)OC21c2ccc(O)cc2Oc2cc(O)ccc21)C(N)=O)C(C)C [KID-AB, reference compound] (H-TDSQKRREILSRRP[pS]YRKILNDLSSDAPGVC(Fluorescein(5-NHCOCH2))-NH2)","ΔΔG vs wild type CBP KIX, L603A",CBP KIX L603A,1.2 kcal/mol
same,"ΔΔG vs wild type CBP KIX, I657A",CBP KIX I657A,0.9 kcal/mol
same,"ΔΔG vs wild type CBP KIX, K606A",CBP KIX K606A,1.0 kcal/mol
same,"ΔΔG vs wild type CBP KIX, Y658F",CBP KIX Y658F,2.5 kcal/mol
same,ΔΔG of HisKIX binding upon phosphorylation,[4],> 3.2 kcal/mol
same,"ΔΔG vs wild type CBP KIX, Y650A",CBP KIX Y650A,1.8 kcal/mol
same,"ΔΔG vs wild type CBP KIX, L599A",CBP KIX L599A,0.58 kcal/mol
same,"ΔΔG vs wild type CBP KIX, K662A",CBP KIX K662A,1.5 kcal/mol
same,"ΔΔG vs wild type CBP KIX, LL652-3AA",CBP KIX LL652-3AA,1.2 kcal/mol
CC[C@H](C)[C@H](NC(=O)[C@H](CCC(=O)O)NC(=O)[C@H](CC(=O)O)NC(=O)CNC(=O)[C@H](Cc1ccccc1)NC(=O)[C@H](Cc1ccc(O)cc1)NC(=O)[C@H](CCCNC(=N)N)NC(=O)[C@H](CC(C)C)NC(=O)[C@H](CC(C)C)NC(=O)[C@H](CCCNC(=N)N)NC(=O)CNC(=O)[C@@H](NC(=O)[C@H](Cc1ccccc1)NC(=O)[C@H](CCCNC(=N)N)NC(=O)[C@@H](NC(=O)[C@H](CC(C)C)NC(=O)[C@H](CC(=O)O)NC(=O)[C@H](CCC(=O)O)NC(=O)[C@@H](NC(=O)[C@@H]1CCCN1C(=O)[C@H](C)NC(=O)[C@H](CC(=O)O)NC(=O)[C@H](CC(=O)O)NC(=O)CNC(=O)[C@@H]1CCCN1C(=O)[C@H](Cc1ccc(O)cc1)NC(=O)[C@@H](NC(=O)[C@@H]1CCCN1C(=O)[C@H](CCC(N)=O)NC(=O)[C@H](CO)NC(=O)[C@@H]1CCCN1C(=O)CN)[C@@H](C)O)C(C)C)[C@@H](C)CC)C(C)C)C(=O)N[C@@H](CC(N)=O)C(=O)N[C@@H](CCCNC(=N)N)C(=O)N[C@@H](CCCNC(=N)N)C(N)=O [p4100] (H-GPSQPTYPGDDAPVEDLIRFVGRLLRYFGDEINRR-NH2),Kd,Bcl-2,401 ± 40 nM
